#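 Cells were grown in 96-well plates and exposed to each compound for 48 hours at five concentrations; endpoints were interpolated linearly between bracketing concentrations, or set to the highest concentration if not reached. Abbreviation: GI50, concentration required for 50% inhibition of growth. TGI: concentration producing complete growth inhibition.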
# Columns and labels:
# Experiment in all cases: NCI anticancer screen, dose series, 48 h
# UO-31 renal = test system: UO-31 renal
# MOLT-4 leukemia = test system: MOLT-4 leukemia
# SR leukemia = test system: SR leukemia
# ACHN renal = test system: ACHN renal
# IGROV1 ovarian = test system: IGROV1 ovarian
# SNB-75 CNS = test system: SNB-75 CNS
# 786-0 renal = test system: 786-0 renal
# MCF7 breast = test system: MCF7 breast
# MDA-MB-435 = test system: MDA-MB-435
# HCC-2998 colon = test system: HCC-2998 colon
# OVCAR-3 ovarian = test system: OVCAR-3 ovarian
# SNB-19 CNS = test system: SNB-19 CNS
# OVCAR-4 ovarian = test system: OVCAR-4 ovarian
# SF-539 CNS = test system: SF-539 CNS
# SW-620 colon = test system: SW-620 colon
# SK-MEL-28 melanoma = test system: SK-MEL-28 melanoma
# SK-MEL-2 melanoma = test system: SK-MEL-2 melanoma
# OVCAR-5 ovarian = test system: OVCAR-5 ovarian
# MALME-3M melanoma = test system: MALME-3M melanoma
# OVCAR-8 ovarian = test system: OVCAR-8 ovarian
# U251 CNS = test system: U251 CNS
# HS 578T breast = test system: HS 578T breast
# A549 NSCLC = test system: A549 NSCLC
# RXF 393 renal = test system: RXF 393 renal
# TK-10 renal = test system: TK-10 renal
# UACC-62 melanoma = test system: UACC-62 melanoma
# DU-145 prostate = test system: DU-145 prostate
# NCI-H460 lung = test system: NCI-H460 lung
# KM12 colon = test system: KM12 colon
# CAKI-1 renal = test system: CAKI-1 renal
# NCI/ADR-RES ovarian = test system: NCI/ADR-RES ovarian
# SF-295 CNS = test system: SF-295 CNS
# A498 renal = test system: A498 renal
# COLO 205 colon = test system: COLO 205 colon
# NCI-H522 lung = test system: NCI-H522 lung
# SK-MEL-5 melanoma = test system: SK-MEL-5 melanoma
# SK-OV-3 ovarian = test system: SK-OV-3 ovarian
# SN12C renal = test system: SN12C renal
# LOX IMVI melanoma = test system: LOX IMVI melanoma
# HOP-62 NSCLC = test system: HOP-62 NSCLC
# T-47D breast = test system: T-47D breast
# M14 melanoma = test system: M14 melanoma
# HCT-116 colon = test system: HCT-116 colon
# UACC-257 melanoma = test system: UACC-257 melanoma
# NCI-H226 lung = test system: NCI-H226 lung
# MDA-MB-231 breast = test system: MDA-MB-231 breast
# HL-60(TB) leukemia = test system: HL-60(TB) leukemia
# HCT-15 colon = test system: HCT-15 colon
# PC-3 prostate = test system: PC-3 prostate
# BT-549 breast = test system: BT-549 breast
# HOP-92 NSCLC = test system: HOP-92 NSCLC
# EKVX NSCLC = test system: EKVX NSCLC
compound,measurement,setting,value
COc1cc2c3c(n(CCCNC4CCCC4)c(=O)c2cc1OC)-c1cc2c(cc1C3=O)OCO2,GI50,UO-31 renal,1660 nM
same,TGI,UO-31 renal,4.21 µM
same,GI50,MOLT-4 leukemia,48.6 nM
same,TGI,MOLT-4 leukemia,3.37 µM
same,GI50,SR leukemia,133 nM
same,TGI,SR leukemia,583 nM
same,GI50,ACHN renal,1490 nM
same,TGI,ACHN renal,2840 nM
same,GI50,IGROV1 ovarian,1400 nM
same,TGI,IGROV1 ovarian,3.65 µM
same,GI50,SNB-75 CNS,13.8 µM
same,TGI,SNB-75 CNS,27.3 µM
same,GI50,786-0 renal,1610 nM
same,TGI,786-0 renal,3.24 µM
same,GI50,MCF7 breast,673 nM
same,TGI,MCF7 breast,2320 nM
same,GI50,MDA-MB-435,1650 nM
same,TGI,MDA-MB-435,3.19 µM
same,GI50,HCC-2998 colon,3.45 µM
same,TGI,HCC-2998 colon,15.7 µM
same,GI50,OVCAR-3 ovarian,1640 nM
same,TGI,OVCAR-3 ovarian,3.31 µM
same,GI50,SNB-19 CNS,2960 nM
same,TGI,SNB-19 CNS,25.5 µM
same,GI50,OVCAR-4 ovarian,1910 nM
same,TGI,OVCAR-4 ovarian,3.99 µM
same,GI50,SF-539 CNS,1510 nM
same,TGI,SF-539 CNS,2980 nM
same,GI50,SW-620 colon,1090 nM
same,TGI,SW-620 colon,2440 nM
same,GI50,SK-MEL-28 melanoma,15.8 µM
same,TGI,SK-MEL-28 melanoma,30.6 µM
same,GI50,SK-MEL-2 melanoma,19 µM
same,TGI,SK-MEL-2 melanoma,35.6 µM
same,GI50,OVCAR-5 ovarian,2460 nM
same,TGI,OVCAR-5 ovarian,5.56 µM
same,GI50,MALME-3M melanoma,1690 nM
same,TGI,MALME-3M melanoma,3.27 µM
same,GI50,OVCAR-8 ovarian,1450 nM
same,TGI,OVCAR-8 ovarian,2980 nM
same,GI50,U251 CNS,1270 nM
same,TGI,U251 CNS,2570 nM
same,GI50,HS 578T breast,19.9 µM
same,TGI,HS 578T breast,81 µM
same,GI50,A549 NSCLC,7.46 µM
same,TGI,A549 NSCLC,25.8 µM
same,GI50,RXF 393 renal,3.83 µM
same,TGI,RXF 393 renal,15.5 µM
same,GI50,TK-10 renal,22 µM
same,TGI,TK-10 renal,36.8 µM
same,GI50,UACC-62 melanoma,13 µM
same,TGI,UACC-62 melanoma,30.2 µM
same,GI50,DU-145 prostate,1440 nM
same,TGI,DU-145 prostate,2820 nM
same,GI50,NCI-H460 lung,446 nM
same,TGI,NCI-H460 lung,1980 nM
same,GI50,KM12 colon,11 µM
same,TGI,KM12 colon,25.2 µM
same,GI50,CAKI-1 renal,1240 nM
same,TGI,CAKI-1 renal,2500 nM
same,GI50,NCI/ADR-RES ovarian,2250 nM
same,TGI,NCI/ADR-RES ovarian,15.7 µM
same,GI50,SF-295 CNS,628 nM
same,TGI,SF-295 CNS,21.7 µM
same,GI50,A498 renal,15.9 µM
same,TGI,A498 renal,29.7 µM
same,GI50,COLO 205 colon,1350 nM
same,TGI,COLO 205 colon,15.4 µM
same,GI50,NCI-H522 lung,5.26 µM
same,TGI,NCI-H522 lung,32 µM
same,GI50,SK-MEL-5 melanoma,17.3 µM
same,TGI,SK-MEL-5 melanoma,31.2 µM
same,GI50,SK-OV-3 ovarian,12.7 µM
same,TGI,SK-OV-3 ovarian,26.4 µM
same,GI50,SN12C renal,1800 nM
same,TGI,SN12C renal,4.3 µM
same,GI50,LOX IMVI melanoma,1030 nM
same,TGI,LOX IMVI melanoma,2330 nM
same,GI50,HOP-62 NSCLC,2380 nM
same,TGI,HOP-62 NSCLC,20.9 µM
same,GI50,T-47D breast,16.6 µM
same,TGI,T-47D breast,36.2 µM
same,GI50,M14 melanoma,1480 nM
same,TGI,M14 melanoma,2900 nM
same,GI50,HCT-116 colon,1200 nM
same,TGI,HCT-116 colon,2670 nM
same,GI50,UACC-257 melanoma,15.8 µM
same,TGI,UACC-257 melanoma,30.3 µM
same,GI50,NCI-H226 lung,17.8 µM
same,TGI,NCI-H226 lung,42 µM
same,GI50,MDA-MB-231 breast,1570 nM
same,TGI,MDA-MB-231 breast,3.29 µM
same,GI50,HL-60(TB) leukemia,1020 nM
same,TGI,HL-60(TB) leukemia,2660 nM
same,GI50,HCT-15 colon,1590 nM
same,TGI,HCT-15 colon,3.43 µM
same,GI50,PC-3 prostate,10.3 µM
same,TGI,PC-3 prostate,31.9 µM
same,GI50,BT-549 breast,13.8 µM
same,TGI,BT-549 breast,27.3 µM
same,GI50,HOP-92 NSCLC,12.5 µM
same,TGI,HOP-92 NSCLC,26.1 µM
same,GI50,EKVX NSCLC,4.64 µM
same,TGI,EKVX NSCLC,17 µM
